From PubChem BioAssay (NCI)
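48-hour exposure; five concentrations; linearly interpolated endpoints. GI50: concentration for 50% inhibition of growth. At the TGI there is no net growth.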

Key:
Assay in all cases: inhibition of tumour cell growth, NCI panel, 48 h
[1] = test system: HT29 colon
[2] = test system: EKVX NSCLC
[3] = test system: RPMI-8226 leukemia
[4] = test system: OVCAR-3 ovarian
[5] = test system: SF-295 CNS
[6] = test system: UO-31 renal
[7] = test system: SR leukemia
[8] = test system: MALME-3M melanoma
[9] = test system: CCRF-CEM leukemia
[10] = test system: IGROV1 ovarian
[11] = test system: SK-OV-3 ovarian
[12] = test system: HS 578T breast
[13] = test system: HOP-92 NSCLC
[14] = test system: MOLT-4 leukemia
[15] = test system: HL-60(TB) leukemia
[16] = test system: HCT-116 colon
[17] = test system: M14 melanoma
[18] = test system: 786-0 renal
[19] = test system: COLO 205 colon
[20] = test system: MDA-MB-231 breast
[21] = test system: PC-3 prostate
[22] = test system: TK-10 renal
[23] = test system: MDA-MB-435
[24] = test system: NCI-H460 lung
[25] = test system: SN12C renal
[26] = test system: SNB-75 CNS
[27] = test system: OVCAR-8 ovarian
[28] = test system: SK-MEL-28 melanoma
[29] = test system: SNB-19 CNS
[30] = test system: NCI-H23 lung
[31] = test system: A549 NSCLC
[32] = test system: SW-620 colon
[33] = test system: RXF 393 renal
[34] = test system: NCI-H226 lung
[35] = test system: SF-268 CNS
[36] = test system: T-47D breast
[37] = test system: SK-MEL-5 melanoma
[38] = test system: LOX IMVI melanoma
[39] = test system: U251 CNS
[40] = test system: HCC-2998 colon
[41] = test system: UACC-257 melanoma
[42] = test system: OVCAR-4 ovarian
[43] = test system: MCF7 breast
[44] = test system: BT-549 breast
[45] = test system: OVCAR-5 ovarian
[46] = test system: HOP-62 NSCLC
[47] = test system: SK-MEL-2 melanoma
[48] = test system: NCI/ADR-RES ovarian
[49] = test system: A498 renal
[50] = test system: ACHN renal
[51] = test system: KM12 colon
[52] = test system: K-562 leukemia
[53] = test system: SF-539 CNS
[54] = test system: NCI-H522 lung
[55] = test system: CAKI-1 renal
[56] = test system: DU-145 prostate
[57] = test system: UACC-62 melanoma
[58] = test system: HCT-15 colon

O=C(CCl)Nc1ccc(Cc2ccc(NC(=O)CCl)cc2)cc1
GI50 [1]: 1.73 µM | TGI [1]: 4.47 µM | GI50 [2]: 2.23 µM | TGI [2]: 5.78 µM | GI50 [3]: 1.67 µM | TGI [3]: 4.78 µM | GI50 [4]: 1.17 µM | TGI [4]: 2.48 µM | GI50 [5]: 3.55 µM | TGI [5]: 19.7 µM | GI50 [6]: 2.77 µM | TGI [6]: > 23.4 µM | GI50 [7]: 0.704 µM | TGI [7]: 5.56 µM | GI50 [8]: 1.39 µM | TGI [8]: 3.17 µM | GI50 [9]: 0.47 µM | TGI [9]: 3.01 µM | GI50 [10]: 1.43 µM | TGI [10]: 4.06 µM | GI50 [11]: 18 µM | TGI [11]: > 100 µM | GI50 [12]: 5.37 µM | TGI [12]: > 100 µM | GI50 [13]: 2.09 µM | TGI [13]: 5.12 µM | GI50 [14]: 1.44 µM | TGI [14]: 6.32 µM | GI50 [15]: 2.07 µM | TGI [15]: 4.84 µM | GI50 [16]: 0.44 µM | TGI [16]: 1.03 µM | GI50 [17]: 1.23 µM | TGI [17]: 3.2 µM | GI50 [18]: 2.09 µM | TGI [18]: 5.1 µM | GI50 [19]: 1.97 µM | TGI [19]: 4.12 µM | GI50 [20]: 1.54 µM | TGI [20]: 5.06 µM | GI50 [21]: 2.13 µM | TGI [21]: 6.42 µM | GI50 [22]: 4.17 µM | TGI [22]: > 75 µM | GI50 [23]: 1.76 µM | TGI [23]: 4.31 µM | GI50 [24]: 2.09 µM | TGI [24]: 4.75 µM | GI50 [25]: 2.38 µM | TGI [25]: > 100 µM | TGI [26]: > 29.3 µM | GI50 [27]: 3.17 µM | TGI [27]: > 100 µM | GI50 [28]: 2.15 µM | TGI [28]: 6.06 µM | GI50 [29]: 1.8 µM | TGI [29]: 5.14 µM | GI50 [30]: 1.77 µM | TGI [30]: 4.52 µM | GI50 [31]: 4.01 µM | TGI [31]: > 100 µM | GI50 [32]: 1.92 µM | TGI [32]: 5.25 µM | GI50 [33]: 1.43 µM | TGI [33]: 3.07 µM | GI50 [34]: 3.14 µM | TGI [34]: > 100 µM | GI50 [35]: 1.83 µM | TGI [35]: 9.56 µM | GI50 [36]: 1.65 µM | TGI [36]: 4.67 µM | GI50 [37]: 1.37 µM | TGI [37]: 2.72 µM | GI50 [38]: 0.784 µM | TGI [38]: 2.35 µM | GI50 [39]: 1.4 µM | TGI [39]: 2.98 µM | GI50 [40]: 1.8 µM | TGI [40]: 3.47 µM | GI50 [41]: 2.78 µM | TGI [41]: 9.46 µM | GI50 [42]: 1.42 µM | TGI [42]: 3.44 µM | GI50 [43]: 1.54 µM | TGI [43]: > 100 µM | GI50 [44]: 1.4 µM | TGI [44]: 4.69 µM | GI50 [45]: 2.27 µM | TGI [45]: 5.52 µM | GI50 [46]: 2.38 µM | TGI [46]: 6.1 µM | GI50 [47]: 2.46 µM | TGI [47]: 7.54 µM | GI50 [48]: 2.84 µM | TGI [48]: > 100 µM | GI50 [49]: 18.7 µM | TGI [49]: 94.1 µM | GI50 [50]: 1.56 µM | TGI [50]: 3.03 µM | GI50 [51]: 1.57 µM | TGI [51]: 3.17 µM | GI50 [52]: 1.67 µM | TGI [52]: > 100 µM | GI50 [53]: 1.66 µM | TGI [53]: 3.28 µM | GI50 [54]: 1.47 µM | TGI [54]: 3.5 µM | GI50 [55]: 1.62 µM | TGI [55]: 3.38 µM | GI50 [56]: 2.85 µM | TGI [56]: 11 µM | GI50 [57]: 1.53 µM | TGI [57]: 3.34 µM

Nc1no[n+]([O-])c1-c1nnc2c(n1)-c1ccccc1C2=O
GI50 [1]: 2.41 µM | TGI [1]: 6.74 µM | GI50 [2]: 2.29 µM | TGI [2]: 5.86 µM | GI50 [3]: 2.76 µM | TGI [3]: 7.73 µM | GI50 [4]: 0.569 µM | TGI [4]: 3.83 µM | GI50 [5]: 12.5 µM | TGI [5]: 34.3 µM | GI50 [6]: 2.25 µM | TGI [6]: 6.75 µM | GI50 [7]: 2.48 µM | GI50 [8]: 1.74 µM | TGI [8]: 3.45 µM | GI50 [9]: 3.22 µM | TGI [9]: 9.37 µM | GI50 [10]: 3.02 µM | TGI [10]: 11.7 µM | GI50 [11]: 16.2 µM | TGI [11]: 51.5 µM | GI50 [12]: 5.58 µM | TGI [12]: 65 µM | GI50 [13]: 2.21 µM | TGI [13]: 6.63 µM | GI50 [14]: 2.38 µM | TGI [14]: 6.21 µM | GI50 [15]: 2.13 µM | TGI [15]: 5.54 µM | GI50 [16]: 1.38 µM | TGI [16]: 3.62 µM | GI50 [17]: 1.78 µM | TGI [17]: 3.66 µM | GI50 [18]: 4.3 µM | TGI [18]: 16.8 µM | GI50 [19]: 1.93 µM | TGI [19]: 4.35 µM | GI50 [20]: 2.89 µM | TGI [20]: 9.4 µM | GI50 [21]: 2.91 µM | TGI [21]: 12.6 µM | GI50 [22]: 13.9 µM | TGI [22]: 27.6 µM | GI50 [23]: 1.91 µM | TGI [23]: 3.82 µM | GI50 [24]: 3.38 µM | TGI [24]: 11.4 µM | GI50 [25]: 1.86 µM | TGI [25]: 3.51 µM | GI50 [26]: 17.4 µM | TGI [26]: 34.5 µM | GI50 [27]: 3.19 µM | TGI [27]: 10.4 µM | GI50 [28]: 3.91 µM | TGI [28]: 13.4 µM | GI50 [29]: 4.88 µM | TGI [29]: 16.7 µM | GI50 [30]: 1.88 µM | TGI [30]: 4.35 µM | GI50 [31]: 5.44 µM | TGI [31]: 20.3 µM | GI50 [32]: 1.83 µM | TGI [32]: 3.65 µM | GI50 [33]: 3.22 µM | TGI [33]: 12.4 µM | GI50 [34]: 16.1 µM | TGI [34]: 37.7 µM | GI50 [35]: 4.4 µM | TGI [35]: 17.3 µM | GI50 [36]: 1.91 µM | TGI [36]: 5.35 µM | GI50 [37]: 1.66 µM | TGI [37]: 3.13 µM | GI50 [38]: 1.81 µM | TGI [38]: 4.16 µM | GI50 [39]: 3.76 µM | TGI [39]: 13.7 µM | GI50 [40]: 13 µM | TGI [40]: 26.8 µM | GI50 [41]: 1.93 µM | TGI [41]: 3.98 µM | GI50 [42]: 1.42 µM | TGI [42]: 2.74 µM | GI50 [58]: 1.83 µM | TGI [58]: 3.91 µM | GI50 [43]: 1.55 µM | TGI [43]: 3.94 µM | GI50 [44]: 2.99 µM | TGI [44]: 12.9 µM | GI50 [45]: 1.88 µM | TGI [45]: 3.77 µM | GI50 [46]: 2.74 µM | TGI [46]: 10 µM | GI50 [47]: 9.13 µM | TGI [47]: 24.4 µM | GI50 [48]: 3.73 µM | TGI [48]: 32.3 µM | GI50 [49]: 22.2 µM | TGI [49]: 63.2 µM | GI50 [50]: 1.56 µM | TGI [50]: 3.1 µM | GI50 [51]: 3.53 µM | TGI [51]: 15.3 µM | GI50 [52]: 1.26 µM | TGI [52]: 4.54 µM | GI50 [53]: 1.8 µM | TGI [53]: 3.67 µM | GI50 [54]: 2.02 µM | TGI [54]: 5.87 µM | GI50 [55]: 2.3 µM | TGI [55]: 6.67 µM | GI50 [56]: 1.74 µM | TGI [56]: 3.45 µM | GI50 [57]: 4.47 µM | TGI [57]: 15.7 µM
